Test results from PubChem BioAssay (NCI).
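Abbreviation: GI50, concentration required for 50% inhibition of growth. TGI denotes the concentration required for complete inhibition of growth.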

Experiments:
Assay in all cases: NCI-60 cell line screen, 384-well format
SK-MEL-5 melanoma = test system: SK-MEL-5 melanoma
HCT-116 colon = test system: HCT-116 colon
HL-60(TB) leukemia = test system: HL-60(TB) leukemia
SW-620 colon = test system: SW-620 colon
NCI-H522 lung = test system: NCI-H522 lung
786-0 renal = test system: 786-0 renal
SF-295 CNS = test system: SF-295 CNS
M14 melanoma = test system: M14 melanoma
K-562 leukemia = test system: K-562 leukemia
SNB-75 CNS = test system: SNB-75 CNS
OVCAR-3 ovarian = test system: OVCAR-3 ovarian
NCI-H460 NSCLC = test system: NCI-H460 NSCLC
OVCAR-5 ovarian = test system: OVCAR-5 ovarian
SF-539 CNS = test system: SF-539 CNS
UACC-62 melanoma = test system: UACC-62 melanoma
NCI-H226 lung = test system: NCI-H226 lung
MALME-3M melanoma = test system: MALME-3M melanoma
SK-MEL-28 melanoma = test system: SK-MEL-28 melanoma
HS 578T breast = test system: HS 578T breast
U251 glioblastoma = test system: U251 glioblastoma
CAKI-1 renal = test system: CAKI-1 renal
MCF7 breast = test system: MCF7 breast
ACHN renal = test system: ACHN renal
HOP-92 NSCLC = test system: HOP-92 NSCLC
A498 renal = test system: A498 renal
MDA-MB-468 breast = test system: MDA-MB-468 breast
COLO 205 colon = test system: COLO 205 colon
NCI-H23 lung = test system: NCI-H23 lung
SN12C renal = test system: SN12C renal
HT29 colon = test system: HT29 colon
T-47D breast = test system: T-47D breast
MDA-MB-435 melanoma = test system: MDA-MB-435 melanoma
PC-3 prostate = test system: PC-3 prostate
KM12 colon = test system: KM12 colon
SR leukemia = test system: SR leukemia
HOP-62 NSCLC = test system: HOP-62 NSCLC
NCI-H322M lung = test system: NCI-H322M lung
SNB-19 CNS = test system: SNB-19 CNS
EKVX NSCLC = test system: EKVX NSCLC
MDA-MB-231 breast = test system: MDA-MB-231 breast
A549 NSCLC = test system: A549 NSCLC
TK-10 renal = test system: TK-10 renal
IGROV1 ovarian = test system: IGROV1 ovarian
UO-31 renal = test system: UO-31 renal
HCT-15 colon = test system: HCT-15 colon
BT-549 breast = test system: BT-549 breast
OVCAR-8 ovarian = test system: OVCAR-8 ovarian
OVCAR-4 ovarian = test system: OVCAR-4 ovarian
MOLT-4 leukemia = test system: MOLT-4 leukemia
UACC-257 melanoma = test system: UACC-257 melanoma
SK-MEL-2 melanoma = test system: SK-MEL-2 melanoma
SF-268 CNS = test system: SF-268 CNS
SK-OV-3 ovarian = test system: SK-OV-3 ovarian
DU-145 prostate = test system: DU-145 prostate

C[C@]12CC[C@@H]3c4ccc(O)cc4C[C@@H](CCCCCCCCCS(=O)CCCC(F)(F)C(F)(F)F)[C@H]3[C@@H]1CC[C@@H]2O (some centres not stated)
GI50 (SK-MEL-5 melanoma): 27.4 µM | TGI (SK-MEL-5 melanoma): > 100 µM | GI50 (HCT-116 colon): > 100 µM | TGI (HCT-116 colon): > 100 µM | GI50 (HL-60(TB) leukemia): > 100 µM | TGI (HL-60(TB) leukemia): > 100 µM | GI50 (SW-620 colon): > 100 µM | TGI (SW-620 colon): > 100 µM | GI50 (NCI-H522 lung): > 100 µM | TGI (NCI-H522 lung): > 100 µM | GI50 ([…]-0 renal): > 100 µM | TGI (786-0 renal): > 100 µM | GI50 (SF-295 CNS): 9.39 µM | TGI (SF-295 CNS): > 100 µM | GI50 (M14 melanoma): > 100 µM | TGI (M14 melanoma): > 100 µM | GI50 (K-562 leukemia): 7.51 µM | TGI (K-562 leukemia): > 100 µM | GI50 (SNB-75 CNS): > 100 µM | TGI (SNB-75 CNS): > 100 µM | GI50 (OVCAR-3 ovarian): > 100 µM | TGI (OVCAR-3 ovarian): > 100 µM | GI50 (NCI-H460 NSCLC): > 100 µM | TGI (NCI-H460 NSCLC): > 100 µM | GI50 (OVCAR-5 ovarian): > 100 µM | TGI (OVCAR-5 ovarian): > 100 µM | GI50 (SF-539 CNS): > 100 µM | TGI (SF-539 CNS): > 100 µM | GI50 (UACC-62 melanoma): > 100 µM | TGI (UACC-62 melanoma): > 100 µM | GI50 (NCI-H226 lung): > 100 µM | TGI (NCI-H226 lung): > 100 µM | GI50 (MALME-3M melanoma): > 100 µM | TGI (MALME-3M melanoma): > 100 µM | GI50 (SK-MEL-28 melanoma): > 100 µM | TGI (SK-MEL-28 melanoma): > 100 µM | GI50 (HS 578T breast): > 100 µM | TGI (HS 578T breast): > 100 µM | GI50 (U251 glioblastoma): > 100 µM | TGI (U251 glioblastoma): > 100 µM | GI50 (CAKI-1 renal): > 100 µM | TGI (CAKI-1 renal): > 100 µM | TGI (MCF7 breast): > 100 µM | GI50 (ACHN renal): > 100 µM | TGI (ACHN renal): > 100 µM | GI50 (HOP-92 NSCLC): > 100 µM | TGI (HOP-92 NSCLC): > 100 µM | GI50 (A498 renal): > 100 µM | TGI (A498 renal): > 100 µM | GI50 (MDA-MB-468 breast): 2.37 µM | TGI (MDA-MB-468 breast): > 100 µM | GI50 (COLO 205 colon): 77.1 µM | TGI (COLO 205 colon): > 100 µM | GI50 (NCI-H23 lung): > 100 µM | TGI (NCI-H23 lung): > 100 µM | GI50 (SN12C renal): > 100 µM | TGI (SN12C renal): > 100 µM | GI50 (HT29 colon): 49.9 µM | TGI (HT29 colon): > 100 µM | GI50 (T-47D breast): 1.93 µM | TGI (T-47D breast): > 100 µM | GI50 (MDA-MB-435 melanoma): > 100 µM | TGI (MDA-MB-435 melanoma): > 100 µM | GI50 (PC-3 prostate): > 100 µM | TGI (PC-3 prostate): > 100 µM | GI50 (KM12 colon): 75.8 µM | TGI (KM12 colon): > 100 µM | GI50 (SR leukemia): > 100 µM | TGI (SR leukemia): > 100 µM | GI50 (HOP-62 NSCLC): > 100 µM | TGI (HOP-62 NSCLC): > 100 µM | GI50 (NCI-H322M lung): 76.8 µM | TGI (NCI-H322M lung): > 100 µM | GI50 (SNB-19 CNS): > 100 µM | TGI (SNB-19 CNS): > 100 µM | GI50 (EKVX NSCLC): > 100 µM | TGI (EKVX NSCLC): > 100 µM | GI50 (MDA-MB-231 breast): > 100 µM | TGI (MDA-MB-231 breast): > 100 µM | GI50 (A549 NSCLC): > 100 µM | TGI (A549 NSCLC): > 100 µM | GI50 (TK-10 renal): > 100 µM | TGI (TK-10 renal): > 100 µM | GI50 (IGROV1 ovarian): > 100 µM | TGI (IGROV1 ovarian): > 100 µM | GI50 (UO-31 renal): > 100 µM | TGI (UO-31 renal): > 100 µM | GI50 (HCT-15 colon): 67.4 µM | TGI (HCT-15 colon): > 100 µM | GI50 (BT-549 breast): > 100 µM | TGI (BT-549 breast): > 100 µM | GI50 (OVCAR-8 ovarian): > 100 µM | TGI (OVCAR-8 ovarian): > 100 µM | GI50 (OVCAR-4 ovarian): > 100 µM | TGI (OVCAR-4 ovarian): > 100 µM | GI50 (MOLT-4 leukemia): 8.42 µM | TGI (MOLT-4 leukemia): > 100 µM | GI50 (UACC-257 melanoma): > 100 µM | TGI (UACC-257 melanoma): > 100 µM | GI50 (SK-MEL-2 melanoma): > 100 µM | TGI (SK-MEL-2 melanoma): > 100 µM | GI50 (SF-268 CNS): > 100 µM | TGI (SF-268 CNS): > 100 µM | GI50 (SK-OV-3 ovarian): > 100 µM | TGI (SK-OV-3 ovarian): > 100 µM | GI50 (DU-145 prostate): > 100 µM | TGI (DU-145 prostate): > 100 µM
